Values of other authors as cited in US6358541B1, “Topical preparation for the treatment of hair loss” (priority 2000, dated 2002).

Assays:
[1] = topical
[2] = 0.1 wt. % adapalene gel, versus petroleum jelly control
comedones = settings: topical
[3] = vapor; OSHA list 1990

O=C(O)CCCCCCCC(=O)O [Azeleic acid, 1,7 heptanedicarboxylic acid]
irritation relative to tretinoin (retinoic acid) [1]: less irritation than tretinoin

COc1ccc(-c2ccc3cc(C(=O)O)ccc3c2)cc1C12CC3CC(CC(C3)C1)C2 [adapalene, Adapalene]
irritative potential [2]: low irritative potential only slightly greater than a petroleum jelly control
comedolytic activity (comedones): significant comedolytic activity

[O][Cl+][O-] [chlorine dioxide]
Permissible Exposure Level (PEL) [3]: 0.1 ppm

CC1=C(/C=C/C(C)=C/C=C/C(C)=C/C=O)C(C)(C)CCC1 [retinaldehyde, Retinaldehyde]
irritation relative to tretinoin (retinoic acid) [1]: significantly less irritating than retinoic acid
